From the NIST ThermoML archive (doi:10.1016/j.tca.2014.11.027)
Numbers after ± are expanded uncertainties.

Settings: Liquid; Gas Chromatography

Row | Structure (SMILES) | Normal boiling temperature
1 | CCCCOP(=O)(CCCC)OCCCC [dibutyl butanephosphonate] | 292.92 ± 2 °C
2 | CCCCCCP(=O)(OCCCC)OCCCC [dibutyl hexylphosphonate] | 319.92 ± 2 °C
3 | CCCCCCCCP(=O)(OCCCC)OCCCC [dibutyl octylphosphonate] | 332.96 ± 2 °C
4 | CCCCCOP(=O)(CCCC)OCCCCC [dipentyl butylphosphonate] | 319.84 ± 2 °C
5 | CCCCCCP(=O)(OCCCCC)OCCCCC [dipentyl hexylphosphonate] | 344.43 ± 2 °C
6 | CCCCCOP(=O)(CCCCC)OCCCCC [dipentyl pentylphosphonate] | 332.64 ± 2 °C

Second part, the compound after the results:

Row | Normal boiling temperature | Structure (SMILES)
7 | 306.70 ± 2 °C | CCCCCP(=O)(OCCCC)OCCCC [dibutyl pentylphosphonate]
8 | 306.90 ± 2 °C | CCCCP(=O)(OCCC(C)C)OCCC(C)C [diisopentyl butylphosphonate]
9 | 332.33 ± 2 °C | CCCCCCP(=O)(OCCC(C)C)OCCC(C)C [diisopentyl hexylphosphonate]
10 | 321.52 ± 2 °C | CCCCCP(=O)(OCCC(C)C)OCCC(C)C [diisopentyl pentylphosphonate]
